# Numbered stars: 1 amine (or outer) side, 2 acyl side, 3 side chain; on linkers, the order of the positions; unused ones are H or OH. Bridge positions count the residues as written; N and C are the ends. Square brackets hold non-standard residues; d marks the D form. Peptide text beside a SMILES is read from it. hPhe = N[C@@H](CCc1ccccc1)C(=O)O; NMeN = CN[C@@H](CC(N)=O)C(=O)O; CO = O=C([*:1])[*:2]
# Legend:
# CPA = system: CPA; parameters: method as in PMID 11000037, PMID 10340607, PMID 27641470; details: ref [9],[23],[87]; read-out: IC50 against CPA; cited from earlier work
# trypsin = assay: Trypsin inhibition assay; assay type: biochemical; details: class symbol in IC50 column
# Experimental: The tests were performed in triplicates.
# Table S2. Conditions and solvents used in the enzyme inhibition assays.
# Enzyme Substrate Inhibitor bation time (min) ngth
# Carboxypeptidase-A N-(4-methoxy-phenyl- Carboxypeptidase
# (Sigma-Aldrich; azoformyl)-Phe-OH inhibitor from 5 min;
# 1.6 µM Montclair, CA, USA) (Sigma-Aldrich)
# Elastase N-succinyl-Ala-Ala-Ala-p- Elastatinal
# (Sigma-Aldrich) nitroanilide (Sigma-Aldrich) 20 min;
# Thrombin N-p-tosyl-Gly-Pro-Lys-p- AEBSF
# (Sigma-Aldrich) nitroanilide acetate salt (Sigma-Aldrich) 10 min;
# Trypsin N-α-benzoyl-DL-arginine- Aprotinine
# (Sigma-Aldrich) p-nitroanilide (Sigma-Aldrich) 15 min;
# Figure S2. MRM chromatograms of anabaenopeptins produced by N. edaphicum CCNP1411.
Molecule,IC50 (CPA) [nM],Enzyme Inhibition TRY (activity class) (trypsin)
Tyr+CO[Lys+Ile+Hty+MeHty+Ile] [AP G],2,–
"CC[C@H](C)[C@H](NC(=O)N[C@@H]1CCCCNC(=O)[C@H](Cc2ccccc2)NC(=O)[C@H](CC(N)=O)N(C)C(=O)[C@H](CCc2ccccc2)NC(=O)[C@H]([C@@H](C)CC)NC1=O)C(=O)O [AP SA6, [Lys–Leu*–Hph–MeAsn–Phe]CO–Leu*] ({Ile-CO}-[dK]I[hPhe][NMeN]F; lactam 1-C)",–,– (not active (inhibition below 10%))
"CC[C@H](C)[C@@H]1NC(=O)[C@H](NC(=O)N[C@H](C(=O)O)C(C)C)CCCCNC(=O)[C@H](Cc2ccccc2)NC(=O)[C@H](CC(N)=O)NC(=O)[C@H](CCc2ccccc2)NC1=O [AP806Ne, [Lys–Leu*–Hph–Asn–Phe]CO–Val] ({Val-CO}-[dK]I[hPhe]NF; lactam 1-C)",–,– (not active (inhibition below 10%))
